Reference: ChEMBL document CHEMBL3046521, “Synthesis and antitumor activity of (4-hydroxyphenyl)[5-substituted alkyl/aryl)-2-thioxo-1,3,4-thiadiazol-3-yl]methanone and [(3,4-disubstituted)-1,3-thiazol-2ylidene]-4-hydroxybenzohydrazide” (2011)

What was measured:
Format in all cases: functional
[1] = test system: HOP-92; test: Cytotoxicity against Homo sapiens (human) HOP92 cells after 48 hr by sulforhodamine B assay; conditions: HOP-92, 48 h; for TGI: read-out: pTGI (converted)
[2] = test system: SNB-75; test: Cytotoxicity against Homo sapiens (human) SNB75 cells after 48 hr by sulforhodamine B assay; conditions: SNB-75, 48 h; for TGI: read-out: pTGI (converted)
[3] = test system: A549; test: Cytotoxicity against Homo sapiens (human) A549 cells after 48 hr by sulforhodamine B assay; conditions: A549, 48 h; for TGI: read-out: pTGI (converted)
[4] = test system: NCI-H23; test: Cytotoxicity against Homo sapiens (human) NCI-H23 cells after 48 hr by sulforhodamine B assay; conditions: NCI-H23, 48 h; for TGI: read-out: pTGI (converted)
[5] = test system: T47D; test: Cytotoxicity against Homo sapiens (human) T47D cells after 48 hr by sulforhodamine B assay; conditions: for TGI: read-out: pTGI (converted)
[6] = test system: M14; test: Cytotoxicity against Homo sapiens (human) M14 cells after 48 hr by sulforhodamine B assay; conditions: M14, 48 h; for TGI: read-out: pTGI (converted)
[7] = test system: UACC-62; test: Cytotoxicity against Homo sapiens (human) UACC62 cells after 48 hr by sulforhodamine B assay; conditions: UACC-62, 48 h; for TGI: read-out: pTGI (converted)
[8] = test system: NCI-H322M; test: Cytotoxicity against Homo sapiens (human) NCI-H322M cells after 48 hr by sulforhodamine B assay; conditions: for TGI: read-out: pTGI (converted)
[9] = test system: MDA-MB-435; test: Cytotoxicity against Homo sapiens (human) MDA-MB-435 cells after 48 hr by sulforhodamine B assay; conditions: MDA-MB-435, 48 h; for TGI: read-out: pTGI (converted)
[10] = test system: SW-620; test: Cytotoxicity against Homo sapiens (human) SW620 cells after 48 hr by sulforhodamine B assay; conditions: SW-620, 48 h; for TGI: read-out: pTGI (converted)
[11] = test system: SR; test: Cytotoxicity against Homo sapiens (human) SR cells after 48 hr by sulforhodamine B assay; conditions: for TGI: read-out: pTGI
[12] = test system: EKVX; test: Cytotoxicity against Homo sapiens (human) EKVX cells after 48 hr by sulforhodamine B assay; conditions: for TGI: read-out: pTGI (converted)
[13] = test system: U-251; test: Cytotoxicity against Homo sapiens (human) U251 cells after 48 hr by sulforhodamine B assay; conditions: U-251, 48 h; for TGI: read-out: pTGI (converted)
[14] = test system: RXF 393; test: Cytotoxicity against Homo sapiens (human) RXF393 cells after 48 hr by sulforhodamine B assay; conditions: RXF 393, 48 h; for TGI: read-out: pTGI (converted)
[15] = test system: DU-145; test: Cytotoxicity against Homo sapiens (human) DU145 cells after 48 hr by sulforhodamine B assay; conditions: DU-145, 48 h; for TGI: read-out: pTGI (converted)
[16] = test system: Malme-3M; test: Cytotoxicity against Homo sapiens (human) MALME-3M cells after 48 hr by sulforhodamine B assay; conditions: for TGI: read-out: pTGI (converted)
[17] = test system: BT-549; test: Cytotoxicity against Homo sapiens (human) BT549 cells after 48 hr by sulforhodamine B assay; conditions: BT-549, 48 h; for TGI: read-out: pTGI (converted)
[18] = test system: COLO 205; test: Cytotoxicity against Homo sapiens (human) COLO205 cells after 48 hr by sulforhodamine B assay; conditions: COLO 205, 48 h; for TGI: read-out: pTGI (converted)
[19] = test system: LOX IMVI; test: Anticancer activity in Homo sapiens (human) LOXIMVI cells assessed as cell growth at 10^-5 M after 48 hr by SRB assay; conditions: read-out: Activity
[20] = test system: SN12C; test: Cytotoxicity against Homo sapiens (human) SN12C cells after 48 hr by sulforhodamine B assay; conditions: for TGI: read-out: pTGI (converted)
[21] = test system: SK-MEL-5; test: Cytotoxicity against Homo sapiens (human) SK-MEL-5 cells after 48 hr by sulforhodamine B assay; conditions: SK-MEL-5, 48 h; for TGI: read-out: pTGI (converted)
[22] = test system: HL-60(TB); test: Cytotoxicity against Homo sapiens (human) HL-60(TB) cells after 48 hr by sulforhodamine B assay; conditions: HL-60, 48 h; for CC50: read-out: pLC50 (the source's name) (converted); for TGI: read-out: pTGI (converted)
[23] = test system: UACC-257; test: Cytotoxicity against Homo sapiens (human) UACC257 cells after 48 hr by sulforhodamine B assay; conditions: UACC-257, 48 h; for TGI: read-out: pTGI (converted)
[24] = test system: NCI-H522; test: Cytotoxicity against Homo sapiens (human) NCI-H522 cells after 48 hr by sulforhodamine B assay; conditions: NCI-H522, 48 h; for TGI: read-out: pTGI (converted)
[25] = test system: NCI-H460; test: Cytotoxicity against Homo sapiens (human) NCI-H460 cells after 48 hr by sulforhodamine B assay; conditions: NCI-H460, 48 h; for TGI: read-out: pTGI (converted)
[26] = test system: OVCAR-4; test: Cytotoxicity against Homo sapiens (human) OVCAR4 cells after 48 hr by sulforhodamine B assay; conditions: OVCAR-4, 48 h; for TGI: read-out: pTGI (converted)
[27] = test system: IGROV-1; test: Cytotoxicity against Homo sapiens (human) IGROV1 cells after 48 hr by sulforhodamine B assay; conditions: IGROV-1, 48 h; for TGI: read-out: pTGI (converted)
[28] = Cytotoxicity against Homo sapiens (human) […] cells after 48 hr by sulforhodamine B assay; conditions: for TGI: read-out: pTGI (converted)
[29] = test system: PC-3; test: Cytotoxicity against Homo sapiens (human) PC3 cells after 48 hr by sulforhodamine B assay; conditions: PC-3, 48 h; for TGI: read-out: pTGI (converted)
[30] = test system: HCC 2998; test: Anticancer activity in Homo sapiens (human) HCC2998 cells assessed as cell growth at 10^-5 M after 48 hr by SRB assay; conditions: HCC 2998, 48 h, read-out: Activity

SMILES: COc1ccc(-c2cs/c(=N\NC(=O)c3ccc(O)cc3)n2-c2ccc(OC)cc2OC)cc1
- GI50 [1]: 3.31 µM
- LC50 [1]: > 100 µM
- TGI [1]: 37.2 µM
- GI50 [2]: 22.9 µM
- LC50 [2]: > 100 µM
- TGI [2]: > 100 µM
- GI50 [3]: 6.03 µM
- LC50 [3]: > 100 µM
- TGI [3]: > 100 µM
- GI50 [4]: 11 µM
- LC50 [4]: > 100 µM
- TGI [4]: > 100 µM
- GI50 [5]: 5.13 µM
- LC50 [5]: > 100 µM
- TGI [5]: 79.4 µM
- GI50 [6]: 5.5 µM
- LC50 [6]: > 100 µM
- TGI [6]: 27.5 µM
- GI50 [7]: 4.47 µM
- LC50 [7]: 85.1 µM
- TGI [7]: 22.9 µM
- GI50 [8]: 22.9 µM
- LC50 [8]: > 100 µM
- TGI [8]: > 100 µM
- GI50 [9]: 2.88 µM
- LC50 [9]: > 100 µM
- TGI [9]: 22.9 µM
- GI50 [10]: 4.37 µM
- LC50 [10]: > 100 µM
- TGI [10]: 43.7 µM
- GI50 [11]: 2 µM
- LC50 [11]: > 100 µM
- TGI [11]: > 100 µM
- GI50 [12]: 6.92 µM
- LC50 [12]: > 100 µM
- TGI [12]: > 100 µM
- GI50 [13]: 4.47 µM
- LC50 [13]: 93.3 µM
- TGI [13]: 89.1 µM
- GI50 [14]: 5.37 µM
- LC50 [14]: > 100 µM
- TGI [14]: > 100 µM
- GI50 [15]: 8.13 µM
- LC50 [15]: > 100 µM
- TGI [15]: 40.7 µM
- GI50 [16]: 5.37 µM
- LC50 [16]: > 100 µM
- TGI [16]: 64.6 µM
- GI50 [17]: 14.1 µM
- LC50 [17]: > 100 µM
- TGI [17]: 69.2 µM
- GI50 [18]: 4.47 µM
- LC50 [18]: 79.4 µM
- TGI [18]: 20.9 µM
- growth at 10 µM [19]: 58.3%
- GI50 [20]: 6.61 µM
- LC50 [20]: > 100 µM
- TGI [20]: 57.5 µM
- GI50 [21]: 5.37 µM
- LC50 [21]: 52.5 µM
- TGI [21]: 19.5 µM
- GI50 [22]: 3.02 µM
- CC50 [22]: > 100 µM
- TGI [22]: 38 µM
- GI50 [23]: 15.1 µM
- LC50 [23]: > 100 µM
- TGI [23]: > 100 µM
- GI50 [24]: 2.57 µM
- LC50 [24]: > 100 µM
- TGI [24]: 20 µM
- GI50 [25]: 3.02 µM
- LC50 [25]: > 100 µM
- TGI [25]: 13.5 µM
- GI50 [26]: 10.2 µM
- LC50 [26]: > 100 µM
- TGI [26]: > 100 µM
- GI50 [27]: 7.94 µM
- LC50 [27]: > 100 µM
- TGI [27]: > 100 µM
- GI50 [28]: 3.8 µM
- LC50 [28]: > 100 µM
- TGI [28]: > 100 µM
- GI50 [29]: 3.39 µM
- LC50 [29]: > 100 µM
- TGI [29]: > 100 µM

SMILES: O=C(c1ccc(O)cc1)n1nc(-c2c(Cl)cccc2Cl)sc1=S
- GI50 [1]: 0.324 µM
- LC50 [1]: 43.7 µM
- TGI [1]: 7.76 µM
- GI50 [2]: 16.6 µM
- LC50 [2]: > 100 µM
- TGI [2]: 50.1 µM
- GI50 [3]: 12.3 µM
- LC50 [3]: > 100 µM
- TGI [3]: 58.9 µM
- GI50 [4]: 12.6 µM
- LC50 [4]: > 100 µM
- TGI [4]: 53.7 µM
- GI50 [5]: 3.89 µM
- LC50 [5]: > 100 µM
- TGI [5]: 32.4 µM
- GI50 [6]: 8.91 µM
- LC50 [6]: 67.6 µM
- TGI [6]: 25.7 µM
- GI50 [7]: 9.55 µM
- LC50 [7]: 58.9 µM
- TGI [7]: 24 µM
- GI50 [8]: 15.1 µM
- LC50 [8]: > 100 µM
- TGI [8]: 66.1 µM
- GI50 [9]: 3.72 µM
- LC50 [9]: > 100 µM
- TGI [9]: 31.6 µM
- GI50 [10]: 12 µM
- LC50 [10]: 87.1 µM
- TGI [10]: 31.6 µM
- GI50 [11]: 1.51 µM
- LC50 [11]: > 100 µM
- TGI [11]: > 100 µM
- GI50 [12]: 5.01 µM
- LC50 [12]: > 100 µM
- TGI [12]: 69.2 µM
- GI50 [13]: 11.5 µM
- LC50 [13]: 91.2 µM
- TGI [13]: 32.4 µM
- GI50 [14]: 17.4 µM
- LC50 [14]: > 100 µM
- TGI [14]: 51.3 µM
- GI50 [15]: 5.89 µM
- LC50 [15]: 79.4 µM
- TGI [15]: 29.5 µM
- GI50 [16]: 29.5 µM
- LC50 [16]: > 100 µM
- TGI [16]: 49 µM
- GI50 [17]: 28.8 µM
- LC50 [17]: > 100 µM
- TGI [17]: 60.3 µM
- GI50 [18]: 13.5 µM
- LC50 [18]: 64.6 µM
- TGI [18]: 29.5 µM
- GI50 [20]: 11.2 µM
- LC50 [20]: > 100 µM
- TGI [20]: 46.8 µM
- GI50 [21]: 10.7 µM
- LC50 [21]: 56.2 µM
- TGI [21]: 24.5 µM
- growth at 10 µM [30]: 17.1%
- GI50 [22]: 2 µM
- CC50 [22]: > 100 µM
- TGI [22]: 30.9 µM
- GI50 [23]: 14.1 µM
- LC50 [23]: > 100 µM
- TGI [23]: 41.7 µM
- GI50 [24]: 11.7 µM
- LC50 [24]: > 100 µM
- TGI [24]: 41.7 µM
- GI50 [25]: 9.33 µM
- LC50 [25]: 75.9 µM
- TGI [25]: 26.3 µM
- GI50 [26]: 11.5 µM
- LC50 [26]: > 100 µM
- TGI [26]: 77.6 µM
- GI50 [27]: 12.9 µM
- LC50 [27]: > 100 µM
- TGI [27]: 89.1 µM
- GI50 [28]: 7.59 µM
- LC50 [28]: > 100 µM
- TGI [28]: 60.3 µM
- GI50 [29]: 3.31 µM
- LC50 [29]: > 100 µM
- TGI [29]: 30.2 µM
